For data set [1] the following is noted: background statement; cited from earlier work.
Data set [2] has as its system gram positive. The settings on record: background statement; cited from earlier work.
For data set [3] the following is noted: background statement; cited from earlier work. This is another data set of the same source.
Data set [4] can be described thus: Absorption following oral administration. It counts as in vivo.
Data set [5] in a line: Stability of the crystal form. Type of data set: physicochemical. The settings on record: prolonged periods of time.
Data set [6] in a line: Solubility (saturated solution in water at 37° C.). Type of data set: physicochemical. The settings on record: for solubility: water, 37° C. As for the experimental part:
For example, the compound forms a saturated solution in water at 37° C. according to the following table: […]

For data set [7], the system named is Peptostrept. intermedius. The data set can be described thus: Activity against anaerobic cocci.
Data set [8] can be described thus: Titration (66% N,N-dimethylformamide/water). It counts as physicochemical. The settings on record: 66% dmf/water. From the text: Titration (66% N,N-dimethylformamide/water) pKa 5.5, 7.5, 11.2.
In data set [9] the test system is Peptostreptococcus anaerobius. The data set can be described thus: Activity against anaerobic cocci.
Data set [10] is described as follows: Pharmacokinetics. It counts as in vivo. The settings on record: in words; tetrahydrate, oral.

This is an account of results in patent US4474780A, “Crystalline cephalosporin” (Eli Lilly and Company, priority 1983, dated 1984).

Like-named read-outs stand apart in the source and are kept apart here.

Regarding `CC1=C(C(=O)O)N2C(=O)C(NC(=O)[C@H](N)c3ccc4ccccc4c3)C2SC1` (stereo partly drawn) [7-(D-2-Naphthylglycylamido)-3-methyl-3-cephem-4-carboxylic acid], in data set [1], the pharmacokinetics result is “favorable pharmacokinetics”. The gram positive activity entry in data set [2] is listed as “excellent gram positive activity”. Also, the orally active antibiotic result in [3] is “potent orally active antibiotic”.

As for `CC1=C(C(=O)O)N2C(=O)C(NC(=O)[C@H](N)c3ccc4ccccc4c3)C2SC1` (stereo partly drawn) [7-(D-2-naphthylglycylamido)-3-methyl-3-cephem-4-carboxylic acid tetrahydrate], in data set [4], the “absorption following oral administration” value was “very well absorbed following oral administration”. Further, the stability result in data set [5] is given as “very stable for prolonged periods of time”. Further, in data set [6] (in words), the solubility in water entry was “only minimally soluble in water”. Further, the solubility – broadly, the dissolved amount per volume that the medium holds – in data set [6] (pH 1.2) amounted to 8600 µg/mL; in [6] (pH 2.0), 1700 µg/mL; in data set [6] (pH 3.0), 200 µg/mL; in data set [6] (pH 4.0), 200 µg/mL; in [6] (pH 5.0), 200 µg/mL; in [6] (pH 6.0) it was 300 µg/mL. For the same compound, the solubility worked out at 800 µg/mL in data set [6] (pH 7.0), 1200 µg/mL in data set [6] (pH 7.5), 4100 µg/mL in data set [6] (pH 8.0) and 7500 µg/mL in data set [6] (pH 8.5). The “effective against anaerobic cocci” value in data set [7] and in data set [9] was “effective” each time. For the same compound, the pKa (in general, the pH at which an ionisable group is half protonated) in [8] (first value) was determined as 5.5; in [8] (second value), 7.5; in data set [8] (third value) it was 11.2. For the same compound, in data set [10], the pharmacokinetics result is listed as “favorable pharmacokinetics”.
